In US20220079912A1, “ANTICANCER FORMULATION” (University of Mississippi, priority 2018, published 2022):

What was measured:
T98G glioblastoma cells = assay: Cell proliferation / cell survival; type: cell-based, human; conditions: varying concentrations, 48 hours, dose dependent, FIG. 1
Method: B16 mouse melanoma cells, T98G glioblastoma cells, and MDA-MB-231 human breast cancer cells were treated with varying concentrations of GH for 48 hours with cell survival measured.

MDA-MB-231 cells = assay: Glucose transport (2-NBDG accumulation); type: cell-based, human; conditions: MDA-MB-231, treated for one hour followed by 2-NBDG for one hour
Description: Phloretin, a known glucose transport inhibitor, was used as a positive control. Accumulation of 2-NDGB was inhibited by phloretin by 54% in T98G cells, by 31% in B16 cells and by 74% in MDA-MB-231 cells. The first panel for each cell line represents unstained cells, the second stained with 2-NBDG for one hour, the third treated with GH for one hour followed by 2-NBDG for one hour and the fourth treated with phloretin for one hour followed by 2-NBDG for one hour.

B16 cells = assay: Lactic acid export (intracellular lactic acid levels); type: cell-based, mouse; conditions: FIG. 4
Method: To prevent the buildup of lactic acid within the cell a family of monocarboxylate transporters (MCT) functions to transport lactic acid out of the cell (10). To determine if GH inhibits lactic acid export from the cell, and in this manner inhibits the accumulation of lactic acid in the cell culture medium, intracellular lactic acid levels were measured. If GH inhibited lactic acid export, treatment of cells with GH would result in the increase in intracellular lactic acid levels. As a positive control the MCT1 inhibitor AZD3965 was used.

T98G cells = assay: Apoptosis, annexin V/propidium iodide (PI) staining; type: cell-based, human; conditions: FIG. 10
Description: This additional target remains to be identified.

ARRDC4 mRNA = assay: Differential gene expression analysis (RNA-Seq) in T98G cells; type: cell-based, human; conditions: 2 hours, GH 8 μM, 2-DG 25 mM, Ph 100, minus = reduced, plus = increase, NC = no change
Description: (§1) GH inhibits expression of TXNIP and ARRDC4 mRNAs. […] Since the transcription factors (MondoA/Mlx complex) regulating the expression of the TXNIP gene is thought to be controlled by intermediates in the upper portion of the glycolytic pathway (12), GH may be negatively impacting this portion of glycolysis. Reduction in the levels of these intermediates by GH would prevent activation of the MondoA/Mlx transcription complex and would result in suppression of TXNIP transcription and TXNIP mRNA levels. Both of these gene products (TXNIP and ARRDC4) are thought to suppress glucose transport by enhancing degradation of glucose transporters (12).

TXNIP mRNA = assay: as above; type: cell-based, human; conditions: 2 hours, GH 8 μM, 2-DG 25 mM, Ph 100, minus = reduced, plus = increase, NC = no change
Description: as §1

TXNIP protein levels = assay: Western blot of TXNIP protein, MDA-MB-231 cell line; type: cell-based, human; conditions: FIG. 16, FIG. 18
Description: AMPK activation has been previously shown to phosphorylate and cause the degradation of TXNIP during energy stress (13).

[1] = tested on: BNC3 patient derived Glioblastoma cells; assay: Colony formation assay, combination with DHEA; type: cell-based, human; conditions: BNC3, 24 h, FIG. 20
[2] = tested on: BNC16 patient derived Glioblastoma cells; assay: Colony formation assay, combination with DHEA; type: cell-based, human; conditions: BNC16, 24 h, FIG. 20
[3] = tested on: BNC41 patient derived Glioblastoma cells; assay: Colony formation assay, combination with DHEA; type: cell-based, human; conditions: BNC41, 24 h, FIG. 20
[4] = tested on: cancer stem cells (CSCs) grown from BNC3 patient derived Glioblastoma cells; assay: Cell viability by Trypan Blue exclusion cell count, combination with DHEA; type: cell-based, human; conditions: 24 h, FIGS. 21A-B

Oc1ccc(/C=C/c2c3c(cc4c2[C@H](c2cc(O)cc(O)c2)[C@@H](c2ccc(O)cc2)O4)O[C@H](c2ccc(O)cc2)[C@H]3c2cc(O)cc(O)c2)cc1 (relative stereo) [GH, trans-Gnetin H]
inhibition of cell proliferation (cell survival) (T98G glioblastoma cells): inhibits the proliferation | effect on accumulation of 2-NBDG (glucose transport) (MDA-MB-231 cells): did not influence the accumulation | effect on intracellular lactic acid (B16 cells): did not increase intracellular lactic acid | induction of apoptosis in combination with Paw Paw extract (PP) (T98G cells): extensive induction of apoptosis | induction of apoptosis in combination with phenformin (Ph) (T98G cells): extensive induction of apoptosis | ARRDC4 mRNA fold change (ARRDC4 mRNA): −6 fold | TXNIP mRNA fold change (TXNIP mRNA): −88 fold | TXNIP protein levels, in combination with Ph (TXNIP protein levels): reduction of TXNIP protein levels | TXNIP protein levels, agent alone (TXNIP protein levels; GH 8 μM 6 hrs or 3 hrs, 2-DG 25 mM, OXA 25 mM, BPX 25 μM, DCA 25 mM, 6 hr): dramatic reduction in the levels of TXNIP protein | cytotoxicity in combination with DHEA (cell staining) [1]: cytotoxic | cytotoxicity in combination with DHEA (cell staining) [2]: cytotoxic | cytotoxicity in combination with DHEA (cell staining) [3]: cytotoxic | cytotoxicity in combination with DHEA (percentage of cell viability) [4]: cytotoxic
